Measured values: US11207312B2, “Metallo-beta-lactamase inhibitors and methods of use thereof” (priority 2017, dated 2021)

How the values were obtained:
VIM-2 = VIM-2 (Escherichia coli, UniProt Q5U7L7); test: biochemical; settings: CCF2-FA fluorescence assay; read-out: VIM2 IC50
[1] = tested on: Serratia marcescens expressing IMP-1 (CL5741); assay type: cell-based; settings: with imipenem 1 μg/ml; 95% inhibition of bacterial growth
In short: (§1)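 Clinical MBL-producing strains were grown overnight at 35 °C on blood agar, suspended in saline, diluted 1:100 into 1.1× CAMHB and exposed to test compound with imipenem at 1 μg/ml. After 22–24 h at 35 °C, absorbance gave MITC95: lowest compound concentration inhibiting 95% of growth.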

[2] = tested on: Escherichia coli expressing NDM-1 (CLB30016); assay type: cell-based; settings: with imipenem 1 μg/ml; 95% inhibition of bacterial growth
In short: as §1

[3] = tested on: Klebsiella pneumoniae expressing VIM-1 (IHMA599644); assay type: cell-based; settings: with imipenem 1 μg/ml; 95% inhibition of bacterial growth
In short: as §1

NDM-1 = NDM-1 (Klebsiella pneumoniae, UniProt C7C422); test: biochemical; assay type: biochemical; settings: CCF2-FA fluorescence assay, 2 hours at 25° C.
Chain of NDM-1 (C7C422 whole entry, looked up, species assumed): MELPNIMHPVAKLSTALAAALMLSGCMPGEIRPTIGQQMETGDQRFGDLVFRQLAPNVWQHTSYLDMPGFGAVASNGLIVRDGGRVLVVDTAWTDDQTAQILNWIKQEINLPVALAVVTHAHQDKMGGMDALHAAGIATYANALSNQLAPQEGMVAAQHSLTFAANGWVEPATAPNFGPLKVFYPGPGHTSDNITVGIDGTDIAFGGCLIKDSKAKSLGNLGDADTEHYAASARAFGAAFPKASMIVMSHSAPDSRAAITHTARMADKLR
In short: (§2)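 Buffer 100 mM KH2PO4 pH 7, 0.005% Tween-20, 10 μM ZnSO4. NDM-1 1 pM, IMP-1 2 pM, VIM-1 30 pM final; CCF2-FA 1.25 μM. Cpd 20–0.00063 μM, 2 h, 25° C. Ex 405/Em 460 nm; IC50 via 4-parameter curve.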

IMP-1 = IMP-1 (Serratia marcescens, UniProt P52699); test: biochemical; settings: CCF2-FA fluorescence assay, 2 hours at 25° C.; read-out: IMP1 IC50
Chain of IMP-1 (P52699 whole entry, looked up, species assumed): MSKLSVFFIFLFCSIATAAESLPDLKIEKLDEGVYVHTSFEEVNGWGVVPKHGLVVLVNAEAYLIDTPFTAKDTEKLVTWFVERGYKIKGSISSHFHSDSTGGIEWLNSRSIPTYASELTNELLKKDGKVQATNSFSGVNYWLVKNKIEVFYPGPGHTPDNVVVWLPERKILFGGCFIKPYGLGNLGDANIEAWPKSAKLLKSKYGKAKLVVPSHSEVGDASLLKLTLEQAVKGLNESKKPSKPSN
In short: as §2

VIM-1 = VIM-1 (Pseudomonas aeruginosa (strain ATCC 15692 / DSM 22644 / CIP 104116 / JCM 14847 / LMG 12228 / 1C / PRS 101 / PAO1), UniProt A0A0F7KYQ8); test: biochemical; settings: CCF2-FA fluorescence assay, 2 hours at 25° C.; read-out: VIM1 IC50
In short: as §2

[4] = tested on: P. aeruginosa MB9799 (efflux-, IMP-1 plasmid); assay type: cell-based, Pseudomonas aeruginosa; settings: efflux − (MB9799) strain; imipenem at 2 μg/mL; in the presence of a class A, C, D serine β-lactamase inhibitor closely related to relebactam
In short: (§3)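 Isogenic P. aeruginosa PAO1 strains (efflux+ and multiple-efflux-pump-disrupted) carrying plasmid IMP-1, with inducible AmpC, tested by broth microdilution. Imipenem and/or ceftazidime fixed, usually at CLSI breakpoint, plus fixed class A/C β-lactamase inhibitor; titrated MBL inhibitor concentration restoring susceptibility recorded and compared between strains as efflux fold difference.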

[5] = tested on: P. aeruginosa MB9798 (efflux+, IMP-1 plasmid); settings: for MB9798 MITC95 P. aeruginosa uM Efflux WT: efflux + (MB9798) strain, imipenem at 2 μg/mL, in the presence of a class A, C, D serine β-lactamase inhibitor closely related to relebactam; for Efflux ratio: fold difference between efflux+ (MB9798) and efflux− (MB9799) strains
In short: as §3

SMILES | IC50 (VIM-2) [nM] | CL5741 S. marcescens MITC95 IMP [1] [µM] | CLB30016 E. coli MITC95 NDM [2] [µM] | IHMA599644 K. pneumoniae MITC95 VIM [3] [µM] | IC50 (NDM-1) [nM] | IC50 (IMP-1) [nM] | IC50 (VIM-1) [nM] | MB9799 MITC95 P. aeruginosa uM Efflux Mutant [4] [µM] | MB9798 MITC95 P. aeruginosa uM Efflux WT [5] [µM] | Efflux ratio [5]
NCC1=CCN(c2ccc(S(=O)(=O)NC[C@H](O)CN)c(S(N)(=O)=O)c2-c2nn[nH]n2)C1.O=C(O)C(F)(F)F.O=C(O)C(F)(F)F [Example 170] | 42.9 | 1.56 | 1.56 | 1.56 | 11.4 | 15.3 | 5.64 | 1.56 | 6.25 | 4.00
NS(=O)(=O)c1c(S(=O)(=O)N[C@@H]2CCNC2)ccc(N2CCC(CCO)C2)c1-c1nnn[nH]1 (stereo partly drawn) [Example 81, 4-[3-(2-hydroxyethyl)pyrrolidin-1-yl]-N1-[(3R)-pyrrolidin-3-yl]-3-(1H-tetrazol-5-yl)benzene-1,2-disulfonamide] | 1 | 3.13 | 3.13 | 6.25 | 0.64 | 0.62 | 0.51 | 3.13 | 6.25 | 2.00
Cl.Cl.NCC1CCN(c2ccc(S(=O)(=O)N[C@@H]3CCNC3)c(S(N)(=O)=O)c2-c2nn[nH]n2)CC1 [Example 135, (R)-4-(4-(aminomethyl)piperidin-1-yl)-N1-(pyrrolidin-3-yl)-3-(2H-tetrazol-5-yl)benzene-1,2-disulfonamide dihydrochloride] | 3 | 0.78 | 0.59 | 1.17 | 1.13 | 3.43 | 0.16 | 0.39 | 0.59 | 1.50
NC[C@@H](O)CNS(=O)(=O)c1ccc(N2CCCN(CCO)CC2)c(-c2nn[nH]n2)c1S(N)(=O)=O [Example 23, (R)-N^1-(3-amino-2-hydroxypropyl)-4-(4-(2-hydroxyethyl)-1,4-diazepan-1-yl)-3-(2H-tetrazol-5-yl)benzene-1,2-disulfonamide] | 10 | 1.56 | 0.39 | 0.78 | 19.7 | 40.5 | 1.48 | 1.56 | 3.13 | 2.00
NOC1CCCN(c2ccc(S(=O)(=O)N[C@@H]3CCNC3)c(S(N)(=O)=O)c2-c2nn[nH]n2)C1=O (stereo partly drawn) [Example 150] | 1.52 | 6.25 | 1.56 | 12.50 | 0.62 | 17.1 | 0.38 | 3.13 | 12.50 | 4.00
NC[C@@H](O)CNS(=O)(=O)c1ccc(N2CC[C@H](CN)[C@@H](F)C2)c(-c2nn[nH]n2)c1S(N)(=O)=O (stereo in doubt) [Example 13, N^1—((R)-3-amino-2-hydroxypropyl)-4-(trans-4-(aminomethyl)-3-fluoropiperidin-1-yl)-3-(2H-tetrazol-5-yl)benzene-1,2-disulfonamide] | 4.12 | 0.78 | 1.56 | 0.78 | 3.01 | 3.7 | 0.14 | 0.39 | 0.78 | 2.00
